From patent US7947726B2, “Non-steroidal ligands for the glucocorticoid receptor, and compositions thereof” (The Regents of the University of California, priority 2002, dated 2011)

Molecular target: T1, PR (Homo sapiens, UniProt P06401)
T1 sequence (P06401 1-933): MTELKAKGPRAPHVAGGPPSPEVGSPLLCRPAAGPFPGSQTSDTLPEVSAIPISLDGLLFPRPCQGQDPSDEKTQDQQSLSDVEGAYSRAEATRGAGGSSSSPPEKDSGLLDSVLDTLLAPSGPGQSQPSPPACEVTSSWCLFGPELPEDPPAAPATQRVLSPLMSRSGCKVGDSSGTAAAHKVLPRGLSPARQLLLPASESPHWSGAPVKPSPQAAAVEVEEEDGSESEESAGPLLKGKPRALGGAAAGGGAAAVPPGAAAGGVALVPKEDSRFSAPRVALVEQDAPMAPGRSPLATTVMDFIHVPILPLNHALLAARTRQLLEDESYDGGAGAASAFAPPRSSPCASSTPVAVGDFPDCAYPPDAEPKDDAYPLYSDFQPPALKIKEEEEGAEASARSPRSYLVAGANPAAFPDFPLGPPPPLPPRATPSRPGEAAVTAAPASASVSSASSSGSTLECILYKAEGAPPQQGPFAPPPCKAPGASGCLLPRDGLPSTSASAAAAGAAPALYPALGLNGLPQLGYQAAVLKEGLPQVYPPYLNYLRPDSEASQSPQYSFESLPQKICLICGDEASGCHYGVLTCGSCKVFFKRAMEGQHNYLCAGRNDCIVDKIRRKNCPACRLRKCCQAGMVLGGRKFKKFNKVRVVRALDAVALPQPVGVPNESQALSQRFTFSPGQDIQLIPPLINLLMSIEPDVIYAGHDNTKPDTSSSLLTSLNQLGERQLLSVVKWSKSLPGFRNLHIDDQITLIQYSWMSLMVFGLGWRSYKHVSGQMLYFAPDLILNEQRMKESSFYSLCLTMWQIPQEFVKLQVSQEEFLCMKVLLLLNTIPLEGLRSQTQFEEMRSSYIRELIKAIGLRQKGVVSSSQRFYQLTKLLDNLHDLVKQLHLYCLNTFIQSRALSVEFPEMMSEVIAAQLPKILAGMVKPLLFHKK
Assay: PR activation (max fold activation)
Assay type: cell-based
Details: Table 4

CC(=O)[C@H]1CC[C@H]2[C@@H]3CCC4=CC(=O)CC[C@]4(C)[C@H]3CC[C@]12C [Progesterone, reference compound]
PR max fold activation: 255 ± 72
